Patent US20240317760A1, “TRK KINASE INHIBITOR COMPOUND AND USE THEREOF” (HENAN MEDINNO PHARMACEUTICAL TECHNOLOGY CO., LTD., priority 2021, published 2024)

What was measured:
Type in all cases: biochemical
TRKA = target: T1, TRKA (Homo sapiens, UniProt P04629); experiment: Determination of inhibitory activity against TRKA kinase (ADP-Glo Kinase Assay); details: ATP 5 μM, Poly (4:1 Glu, Tyr) Peptide 0.03 mg/ml
T1 construct: purchased Carna 08-186
Description: (§1) Assay: Determination of Inhibitory Activity Against TRKA/B/C Kinases
(§2) 1× volume of 5× kinase reaction buffer and 4× volume of water; 5 mM MgCl2; and 1 mM DTT.
(§3) • 1). Gradiently diluting a compound 4-fold in a dilution plate with DMSO, with a starting compound concentration of 1000 nM. • 2). Diluting the compound 50-fold into 1× kinase reaction buffer and shaking it on a shaker for 20 minutes. • 3). Formulating 2× kinase with 1× of enzyme reaction buffer. • 4). Adding 2 μl kinase (formulated in step 3) to each well of the reaction plate. • 5). Adding 1 μl of the compound diluted in buffer to each well, sealing the plate with a sealing membrane and centrifuging the plate at 1000 g for 30 seconds and leaving it at room temperature for 10 minutes. • 6). Formulating 4×ATP & sub mixture with 1× enzyme reaction buffer and adding 1 μl of 4×ATP & sub mixture to the reaction plate. • 7). Sealing the plate with a sealing membrane and centrifuging the plate at 1000 g for 30 seconds and allowing it to react at room temperature for 60 minutes. • 8). Transferring 4 μl of ADP-Glo to 384 reaction plate and centrifuging the plate at 1000 rpm/min for 1 min, and then incubating it at 25° C. for 40 min. • 9). Transferring 8 μl of Detection solution to 384 reaction plate and centrifuging the plate at 1000 rpm/min for 1 min and incubating it at 25° C. for 40 min. • 10) Reading the RLU (Relative luminescence unit) signal using a Biotek multifunctional plate reader. The signal intensity was used to characterize the activity degree of kinase.
(§4) The IC50 (half inhibition concentration) of a compound was obtained using the following non-linear fitting equation, wherein data analysis was performed using Graphpad 6.0 software.
(§5) Y=Bottom+(Top−Bottom)/(1+10^((Log IC50−X)*Hill Slope)) • X: log value of compound concentration; and Y: inhibition rate (% inhibition)
(§6) Data were exported from Biotek and analyzed manually. The ratios were converted to inhibition rates and IC50 was calculated by Prism GraphPad 6.0 from the inhibition rates. IC50 was calculated again by the ratios to verify accuracy of the results.

TRKB = target: T2, TRKB (Homo sapiens, UniProt Q16620); experiment: Determination of inhibitory activity against TRKB kinase (ADP-Glo Kinase Assay); details: ATP 20 μM, Poly (4:1 Glu, Tyr) Peptide 0.03 mg/ml
T2 construct: purchased SignalChem N17-11G
T2 sequence (Q16620 32-822): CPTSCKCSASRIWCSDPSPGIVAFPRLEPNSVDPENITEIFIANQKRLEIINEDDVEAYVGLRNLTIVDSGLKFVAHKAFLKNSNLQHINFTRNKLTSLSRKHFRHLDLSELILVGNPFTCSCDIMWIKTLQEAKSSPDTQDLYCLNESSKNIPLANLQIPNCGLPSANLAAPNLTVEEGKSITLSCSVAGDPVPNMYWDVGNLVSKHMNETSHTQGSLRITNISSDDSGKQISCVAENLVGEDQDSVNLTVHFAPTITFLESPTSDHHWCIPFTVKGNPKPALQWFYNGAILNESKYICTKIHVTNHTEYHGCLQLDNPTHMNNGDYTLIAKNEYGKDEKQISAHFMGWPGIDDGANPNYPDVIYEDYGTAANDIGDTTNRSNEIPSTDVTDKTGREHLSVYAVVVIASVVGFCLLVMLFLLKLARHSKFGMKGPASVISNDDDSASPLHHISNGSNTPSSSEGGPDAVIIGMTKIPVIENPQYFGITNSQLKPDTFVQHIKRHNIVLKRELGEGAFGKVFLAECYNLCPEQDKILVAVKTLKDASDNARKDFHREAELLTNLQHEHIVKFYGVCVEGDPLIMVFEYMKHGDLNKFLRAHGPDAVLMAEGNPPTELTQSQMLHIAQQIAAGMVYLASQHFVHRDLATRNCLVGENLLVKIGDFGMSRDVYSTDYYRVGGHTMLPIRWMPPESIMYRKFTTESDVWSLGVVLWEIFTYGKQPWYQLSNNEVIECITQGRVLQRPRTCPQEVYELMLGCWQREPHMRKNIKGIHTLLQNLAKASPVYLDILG
Description: as §1, §2, §3, §4, §5, §6

TRKC = target: T3, TRKC (Homo sapiens, UniProt Q16288); experiment: Determination of inhibitory activity against TRKC kinase (ADP-Glo Kinase Assay); details: ATP 5 μM, Poly (4:1 Glu, Tyr) Peptide 0.03 mg/ml
T3 construct: purchased Carna 08-196
T3 sequence (Q16288 32-839): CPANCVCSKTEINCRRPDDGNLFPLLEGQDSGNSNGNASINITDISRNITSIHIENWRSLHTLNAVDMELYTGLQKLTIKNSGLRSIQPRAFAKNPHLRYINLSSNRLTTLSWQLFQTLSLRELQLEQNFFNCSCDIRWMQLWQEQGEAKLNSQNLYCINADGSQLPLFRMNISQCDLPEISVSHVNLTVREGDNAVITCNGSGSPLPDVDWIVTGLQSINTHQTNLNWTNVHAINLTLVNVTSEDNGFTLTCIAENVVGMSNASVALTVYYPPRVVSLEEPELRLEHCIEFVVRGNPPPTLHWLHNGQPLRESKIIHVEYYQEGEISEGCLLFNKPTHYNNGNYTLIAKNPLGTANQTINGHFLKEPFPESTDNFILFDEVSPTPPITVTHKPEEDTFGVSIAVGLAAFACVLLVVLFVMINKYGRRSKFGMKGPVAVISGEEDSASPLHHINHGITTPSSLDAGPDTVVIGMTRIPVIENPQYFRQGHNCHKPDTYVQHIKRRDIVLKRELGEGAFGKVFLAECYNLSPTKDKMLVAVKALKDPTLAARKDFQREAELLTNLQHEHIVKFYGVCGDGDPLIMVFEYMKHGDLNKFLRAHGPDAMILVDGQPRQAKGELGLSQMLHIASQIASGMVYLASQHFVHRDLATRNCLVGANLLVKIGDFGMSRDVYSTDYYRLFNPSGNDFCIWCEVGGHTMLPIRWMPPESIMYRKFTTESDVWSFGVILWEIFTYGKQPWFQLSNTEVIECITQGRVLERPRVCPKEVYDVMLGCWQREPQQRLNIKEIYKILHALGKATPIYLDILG
Description: as §1, §2, §3, §4, §5, §6

T1 sequence (P04629 33-796): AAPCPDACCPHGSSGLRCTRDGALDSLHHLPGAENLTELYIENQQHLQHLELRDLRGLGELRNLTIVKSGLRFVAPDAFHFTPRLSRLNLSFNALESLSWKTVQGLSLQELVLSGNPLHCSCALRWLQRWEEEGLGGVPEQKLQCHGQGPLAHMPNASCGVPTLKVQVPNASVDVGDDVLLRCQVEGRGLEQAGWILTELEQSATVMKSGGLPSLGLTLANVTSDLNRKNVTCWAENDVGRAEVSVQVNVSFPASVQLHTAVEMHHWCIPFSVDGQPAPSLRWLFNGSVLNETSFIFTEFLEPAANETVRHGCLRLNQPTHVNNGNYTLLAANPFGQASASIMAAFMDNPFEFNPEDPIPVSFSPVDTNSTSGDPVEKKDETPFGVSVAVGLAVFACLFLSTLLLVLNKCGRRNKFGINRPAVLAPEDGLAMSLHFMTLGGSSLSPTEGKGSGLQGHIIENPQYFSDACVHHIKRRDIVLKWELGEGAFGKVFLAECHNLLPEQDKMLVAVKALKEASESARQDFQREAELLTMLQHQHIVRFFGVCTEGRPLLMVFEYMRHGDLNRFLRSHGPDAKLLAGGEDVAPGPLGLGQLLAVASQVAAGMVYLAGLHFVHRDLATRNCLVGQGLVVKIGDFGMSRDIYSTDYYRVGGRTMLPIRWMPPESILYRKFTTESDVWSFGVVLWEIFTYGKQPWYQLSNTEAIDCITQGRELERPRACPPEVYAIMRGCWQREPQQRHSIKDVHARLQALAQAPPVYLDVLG

SMILES	IC50 (TRKA)	IC50 (TRKB)	IC50 (TRKC)
CC(Nc1ccc2[nH]nc(-c3nc4c([nH]3)CNC4)c2c1)c1cc(F)cc(F)c1 (stereo not drawn) [Example 1]	1.8 nM	2.8 nM	5.5 nM
Fc1cc(F)cc(CNc2ccc3[nH]nc(-c4nc5c([nH]4)CN(CC4CCNCC4)C5)c3c2)c1 [Example 2, N-(3,5-difluorobenzyl)-3-(5-(piperidin-4-ylmethyl)-1,4,5,6-tetrahydropyrrolo[3,4-d]imidazol-2-yl)-1H-indazol-5-amine]	3.5 nM	3.4 nM	3.3 nM
CS(=O)(=O)N1Cc2nc(-c3n[nH]c4ccc(Cc5cc(F)cc(F)c5)cc34)[nH]c2C1 [Example 3, 5-(3,5-difluorobenzyl)-3-(5-(methylsulfonyl)-1,4,5,6-tetrahydropyrrolo[3,4-d]imidazol-2-yl)-1H-indazole]	6.4 nM	5.5 nM	11 nM
CC(Oc1ccc2[nH]nc(-c3nc4c([nH]3)CN(C3CCN(C)CC3)C4)c2c1)c1cc(F)cc(F)c1 (stereo not drawn) [Example 4, 5-(1-(3,5-difluorophenyl)ethoxy)-3-(5-(1-methylpiperidin-4-yl)-1,4,5,6-tetrahydropyrrolo[3,4-d]imidazol-2-yl)-1H-indazole]	2 nM	2.4 nM	3.1 nM
CC(Oc1ccc2[nH]nc(-c3nc4c([nH]3)CN(C(=O)N(C)C)C4)c2c1)c1cc(F)cc(F)c1 (stereo not drawn) [Example 5, 2-(5-(1-(3,5-difluorophenyl)ethoxy)-1H-indazol-3-yl)-N,N-dimethyl-4,6-dihydropyrrolo[3,4-d]imidazole-5(1H) formamide]	2.3 nM	2.1 nM	3.1 nM
CC(Oc1ccc2[nH]nc(-c3nc4c([nH]3)CN(C(=O)OCCN(C)C)C4)c2c1)c1cc(F)cc(F)c1 (stereo not drawn) [Example 6, 2-(Dimethylamino)ethyl 2-(5-(1-(3,5-difluorophenyl)ethoxy)-1H-indazol-3-yl)-4,6-dihydropyrrolo[3,4-d]imidazole-5(1H)-carboxylate]	0.97 nM	3.2 nM	1.4 nM
CC(Oc1ccc2[nH]nc(-c3nc4c([nH]3)CN(C(=O)C3CCN(C)CC3)C4)c2c1)c1cc(F)cc(F)c1 (stereo not drawn) [Example 7, (2-(5-(1-(3,5-difluorophenyl)ethoxy)-1H-indazol-3-yl)-4,6-dihydropyrrolo[3,4-d]imidazol-5(1H)-yl)(1-methylpiperidin-4-yl)ketone]	1.4 nM	3.4 nM	1.3 nM
CC(Oc1ccc2[nH]nc(-c3nc4c([nH]3)CN(C3CCN(C)CC3)CC4)c2c1)c1cc(F)cc(F)c1 (stereo not drawn) [Example 8, 2-(5-(1-(3,5-difluorophenyl)ethoxy)-1H-indazol-3-yl)-5-(1-methylpiperidin-4-yl)-4,5,6,7-tetrahydro-3H-imidazo[4,5-c]pyridine]	0.7 nM	2.8 nM	1.6 nM
C[C@H](Oc1ccc2[nH]nc(-c3nc4c([nH]3)CN(CC3CCN(C)CC3)C4)c2c1)c1cc(F)cc(F)c1 [Example 9]	1.7 nM	28 nM	4.6 nM
CC(Oc1ccc2[nH]nc(-c3nc4c([nH]3)CN(C(=O)OC3CCN(C)CC3)C4)c2c1)c1cc(F)cc(F)c1 (stereo not drawn) [Example 10, 1-Methylpiperidin-4-yl-2-(5-(1-(3,5-difluorophenyl)ethoxy)-1H-indazol-3-yl)-4,6-dihydropyrrolo[3,4-d]imidazole-5(1H)-carboxylate]	0.77 nM	2.5 nM	1.3 nM
CC(Nc1ccc2[nH]nc(-c3nc4c([nH]3)CN(CC3CCNCC3)C4)c2c1)c1cc(F)cc(F)c1 (stereo not drawn) [Example 11, N-(1-(3,5-difluorophenyl)ethyl)-3-(5-(piperidin-4-ylmethyl)-1,4,5,6-tetrahydropyrrolo[3,4-d]imidazol-2-yl)-1H-indazol-5-amine]	1.4 nM	2.2 nM	2.4 nM
O=C(C1CC1)N1Cc2nc(-c3n[nH]c4ccc(Cc5cc(F)cc(F)c5)cc34)[nH]c2C1 [Example 13, Cyclopropyl(2-(5-(3,5-difluorobenzyl)-1H-indazol-3-yl)-4,6-dihydropyrrolo [3,4-d]imidazol-5(1H)-yl)ketone]	6.9 nM	4.4 nM	9.2 nM
CN1CCC(N2Cc3nc(-c4n[nH]c5ccc(Cc6cc(F)cc(F)c6)cc45)[nH]c3C2)CC1 [Example 14, 5-(3,5-Difluorobenzyl)-3-(5-(1-methylpiperidin-4-yl)-1,4,5,6-tetrahydropyrrolo[3,4-d]imidazol-2-yl)-1H-indazole]	3.5 nM	9.5 nM	11.5 nM
CC(Oc1ccc2[nH]nc(-c3nc4c([nH]3)CN(CC3CCN(C)CC3)C4)c2c1)c1cc(F)cc(F)c1 (stereo not drawn) [Example 15]	0.75 nM	0.65 nM	0.86 nM
CC(Oc1ccc2[nH]nc(-c3nc4c([nH]3)CN(CC3CCNCC3)C4)c2c1)c1cc(F)cc(F)c1 (stereo not drawn) [Example 16, 5-(1-(3,5-Difluorophenyl)ethoxy)-3-(5-(piperidin-4-ylmethyl)-1,4,5,6-tetrahydropyrrolo[3,4-d]imidazol-2-yl)-1H-indazole]	1.3 nM	1.9 nM	1.8 nM
CCN1CCC(CN2Cc3nc(-c4n[nH]c5ccc(OC(C)c6cc(F)cc(F)c6)cc45)[nH]c3C2)CC1 (stereo not drawn) [Example 17]	0.66 nM	4.2 nM	1.5 nM
CC(Oc1ccc2[nH]nc(-c3nc4c([nH]3)CN(CCN(C)C)C4)c2c1)c1cc(F)cc(F)c1 (stereo not drawn) [Example 18, 2-(2-(5-(1-(3,5-Difluorophenyl)ethoxy)-1H-indazol-3-yl)-4,6-dihydropyrrolo[3,4-d]imidazol-5(1H)-yl)-N,N-dimethyl ethan-1-amine]	0.8 nM	1.1 nM	1.5 nM
CC(=O)N1CCC(CN2Cc3nc(-c4n[nH]c5ccc(OC(C)c6cc(F)cc(F)c6)cc45)[nH]c3C2)CC1 (stereo not drawn) [Example 19, 1-(4-((2-(5-(1-(3,5-Difluorophenyl)ethoxy)-1H-indazol-3-yl)-4,6-dihydropyrrolo[3,4-d]imidazol-5(1H)-yl)methyl)piperidin-1-yl)ethan-1-one]	1.2 nM	4.8 nM	4.1 nM
CC(Oc1ccc2[nH]nc(-c3nc4c([nH]3)CN(CC3CCN(C)C3)C4)c2c1)c1cc(F)cc(F)c1 (stereo not drawn) [Example 20]	1.5 nM	4 nM	2.9 nM
CC(Oc1ccc2[nH]nc(-c3nc4c([nH]3)CN(CCC3CCN(C)CC3)C4)c2c1)c1cc(F)cc(F)c1 (stereo not drawn) [Example 21, 5-(1-(3,5-Difluorophenyl)ethoxy)-3-(5-(2-(1-methylpiperidin-4-yl)ethyl)-1,4,5,6-tetrahydropyrrolo[3,4-d]imidazol-2-yl)-1H-indazole]	1.8 nM	6.8 nM	2.5 nM
CC(Oc1ccc2[nH]nc(-c3nc4c([nH]3)CN(CC3CCN(C(C)C)CC3)C4)c2c1)c1cc(F)cc(F)c1 (stereo not drawn) [Example 22]	0.47 nM	0.82 nM	0.51 nM
CC(Oc1ccc2[nH]nc(-c3nc4c([nH]3)CN(C(C)C3CCN(C)CC3)C4)c2c1)c1cc(F)cc(F)c1 (stereo not drawn) [Example 23, 5-(1-(3,5-Difluorophenyl)ethoxy)-3-(5-(1-(1-methylpiperidin-4-yl)ethyl)-1,4,5,6-tetrahydropyrrolo[3,4-d]imidazol-2-yl)-1H-indazole]	0.59 nM	1.5 nM	1.1 nM
